Measurements published in US20100215653A1, “METHODS OF TREATING NEOPLASTIC, AUTOIMMUNE AND INFLAMMATORY DISEASES” (Seattle Genetics, Inc., priority 2006, published 2010).
One block for each compound: values may come before it.

Assays:
HEL 92.1.7 cells = experiment: Complement-dependent cytotoxicity (CDC) activity; format: cell-based, human; settings: HEL 92.1.7 cells preincubated 2 hours with drug before HuM195
Experimental: The purpose of this study was to determine whether the cytotoxic effects of an anti-CD33 antibody (HuM195) on AML cells could be enhanced by combination treatment with chemotherapeutic drugs. An MDR^+, CD33-positive AML cell line (HEL 92.1.7) was either untreated or preincubated with the indicated concentrations of thalidomide or 5-azacytidine for two hours prior to exposure to the anti-CD33 Ab. Cytotoxic activity was measured using a complement-dependent cytotoxicity (CDC) activity.

HL-60 cells = experiment: HL-60 disseminated AML model in mice; format: in vivo; settings: low doses of cytarabine alone (FIG. 22)
Experimental: Mice were implanted with an AML cell line, HL-60, as follows: 5 million HL-60 cells were injected intravenously. The mice were treated with lintuzumab (10 mg/kg, q4dx4, ip), cytarabine (1 mg/kg, 5 mg/kg or 25 mg/kg, q1dx10, ip; or 50 mg/kg or 100 mg/kg, q2dx5, ip) or lintuzumab with cytarabine (dosed as described previously). Treatment began on day one. Referring to FIG. 22, the control mice or mice treated with placebo (0.9% saline) were removed from the study by day 80, due to tumor progression.
To confirm the data of the in vitro study, mice were implanted with an AML cell line, HL-60, as follows: 5 million HL-60 cells were injected intravenously. […] Treatment began on day one. Referring to FIG. 24, the control mice were removed from the study by about day 60 due to tumor progression. Mice treated with lenalidomide were removed from study by about day 90 for similar reasons.
The MDR-negative HL60 cell line and the MDR-positive HEL9217 and TF1-α cell lines were used. […] Disease symptoms typically developed between about 35 and about 80 days, and included hind limb paralysis, scruffy coat, weight loss, palpable tumors, and/or tumor masses in bone, peritoneal cavity, or soft tissues. Human CD33+ tumor cells were detected in the blood, bone marrow, and lymph nodes of the majority of the mice by flow cytometry (FIG. 25). Solid tumors associated with bone or soft tissues were found in 20 to 60% of the mice.

[1] = system: AML tumor cells (KG-1 HEL9217, and TF1α); experiment: ADCC, 51Cr release assay with NK effector cells; format: cell-based, human; settings: NK cells pre-treated 2 to 3 h with drug before addition to target cells (FIG. 23)
Experimental: Target AML tumor cells (KG-1 HEL9217, and TF1α) were labeled with Na^51CrO4 and mixed with enriched CD16^+ effector (NK) cells, prepared using PBMCs from normal donors. The effector to target cell ratio was 10:1. […] Macrophages were labeled with CD11b−FITC or CD14-FITC antibody. Flow cytometric analyses of dual labeled (PKH67+CD11b+ or PKH67+CD14+) cells was used to determine specific uptake (phagocytosis). […] Media were collected 18 h later and analyzed by ELISA for IL-8 or MCP-1.
Viable NK cells were pre-treated for 2 to 3 h with lenalidomide or thalidomide (as described in FIG. 23) prior to addition to target cells.

[2] = target: CD33 on human cells (AML cell lines HL60, KG-1, HEL9217, TF1-alpha, U937; primary human monocytes and macrophages) (human) (UniProt P20138); experiment: apparent Kd, saturation binding by flow cytometry on HL60 cells
[3] = target: CD33 on human cells (AML cell lines HL60, KG-1, HEL9217, TF1-alpha, U937; primary human monocytes and macrophages) (human) (UniProt P20138); experiment: apparent Kd, saturation binding by flow cytometry on KG-1 cells
[4] = target: CD33 on human cells (AML cell lines HL60, KG-1, HEL9217, TF1-alpha, U937; primary human monocytes and macrophages) (human) (UniProt P20138); experiment: apparent Kd, saturation binding by flow cytometry on HEL9217 cells
[5] = target: CD33 on human cells (AML cell lines HL60, KG-1, HEL9217, TF1-alpha, U937; primary human monocytes and macrophages) (human) (UniProt P20138); experiment: apparent Kd, saturation binding by flow cytometry on TF1-alpha cells
[6] = system: primary human macrophages; experiment: Macrophage migration in response to chemoattractants (CytoSelect Cell Migration Assay); format: cell-based; settings: 10% human serum or 20% conditioned media from RPMI 8226 cells; p<0.05 (FIG. 21)
Experimental: (§1) The migration of macrophages in response to challenge with plating media containing 10% human serum, 20% conditioned tumor cell media, or 50 ng/ml TGF-β, VEGF, TNF-α, or IFN-γ was evaluated using the CytoSelect Cell Migration Assay (Cell Biolabs, San Diego, Calif.). […] The study was stopped 18 hours later and migration was evaluated after dissociation of the cells from the membrane followed by detection with Cyquant GR dye.
as §1, with “serum or” for “serum,”, “media” for “media, or 50 ng/ml TGF-β, VEGF, TNF-α, or IFN-γ”, “studies were” for “study was”, “h” for “hours”

[7] = Effector function (ADCC or CDC activity), data not shown; format: cell-based
CD33 [8] = target: T1, CD33 (Homo sapiens, UniProt P20138); experiment: CD33 tyrosine phosphorylation (CD33 immunoprecipitation, anti-phosphotyrosine Western blot); format: cell-based; parameters: endogenous in cells; host or cells: HL-60, U937; primary human CD14+ monocytes and PBMC-derived macrophages; settings: HL-60 AML cells (FIG. 16)
Experimental: CD33-positive cell lines were treated with anti-CD33 antibodies (lintuzumab and certain commercially available antibodies). Cell extracts were prepared and CD33 was immunoprecipitated using an anti-CD33 antibody (MY9 clone; Beckman Coulter, Calif.). Western blotting was performed with an anti-phosphotyrosine antibody (4G10; Upstate Biotechnologies, Inc., Lake Placid, N.Y.).
(§2) Deglycosylation was confirmed by CE-SDS. […] Cell lysates were prepared and CD33 immunoprecipitated using an anti-CD33 rabbit polyclonal antibody (Santa Cruz Biotechnology, Santa Cruz, Calif.) prior to SDS PAGE gel electrophoresis. Western blot analyses of these samples were performed using the 4G10 phosphotyrosine antibody (Upstate Biotechnology, Temucula, Calif.), anti-CD33 antibody (NovoCastra, Norwell, Mass.), and anti-SHP-1 antibody (Calbiochem, San Diego, Calif.). Control lysate for SHP-1 was prepared from a B cell lymphoma cell line.

CD33 [9] = target: T1, CD33; experiment: Recruitment of SHP-1 / SHP-2 / Syk to CD33 (CD33 immunoprecipitation, Western blot); format: cell-based; parameters: endogenous in cells; host or cells: HL-60, U937; primary human CD14+ monocytes and PBMC-derived macrophages; settings: HL-60 and monocytes; 30 minutes (FIG. 16)
Experimental: To determine whether the humanized M195 antibody also recruits SHP phosphatases, HL-60 cells were treated with soluble or cross-linked anti-CD33 antibodies. Cell extracts were prepared and CD33 was immunoprecipitated with an anti-CD33 antibody (MY9 clone). Western blotting was performed with an anti-SHP-1 antibody (sc-287; Santa Cruz Biotechnology, Inc., Santa Cruz, Calif.).
as §2, with “To prepare deglycosylated SGN-33, the antibody was treated with PN-glycosidase F (New England BioLabs, Ipswich, Mass.). Deglycosylation” for “Deglycosylation”

CD33 on human cells (AML cell lines HL60, KG-1, HEL9217, TF1-alpha, U937; primary human monocytes and macrophages) (human), sequence (P20138 18-364): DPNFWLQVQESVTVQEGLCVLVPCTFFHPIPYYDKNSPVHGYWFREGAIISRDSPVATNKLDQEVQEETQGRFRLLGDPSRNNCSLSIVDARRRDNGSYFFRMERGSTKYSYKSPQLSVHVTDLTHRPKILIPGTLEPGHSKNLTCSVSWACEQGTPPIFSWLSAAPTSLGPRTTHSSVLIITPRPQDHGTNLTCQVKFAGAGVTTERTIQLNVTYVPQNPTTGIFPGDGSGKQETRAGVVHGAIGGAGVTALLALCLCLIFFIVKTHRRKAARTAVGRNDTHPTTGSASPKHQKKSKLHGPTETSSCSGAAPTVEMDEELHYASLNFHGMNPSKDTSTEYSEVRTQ
T1 sequence (P20138 18-364): as above

Compound: Nc1ncn([C@@H]2O[C@H](CO)[C@@H](O)[C@H]2O)c(=O)n1 [5-azacytidine]
sensitivity to HuM195-mediated CDC activity after preincubation with drug (HEL 92.1.7 cells): enhanced the sensitivity

Compound: Nc1ccn([C@@H]2O[C@H](CO)[C@@H](O)[C@@H]2O)c(=O)n1 [cytarabine, reference compound]
percent survival rates compared to untreated controls (HL-60 cells): increasing percent survival rates

Compound: Nc1cccc2c1CN(C1CCC(=O)NC1=O)C2=O (stereo not shown) [lenalidomide, reference compound]
effect on SGN-33 mediated ADCC [1]: enhanced SGN-33 mediated ADCC

Compound: O=C1CCC(N2C(=O)c3ccccc3C2=O)C(=O)N1 (stereo not shown) [thalidomide, reference compound]
sensitivity to HuM195-mediated CDC activity after preincubation with drug (HEL 92.1.7 cells): enhanced the sensitivity
effect on SGN-33 mediated ADCC [1]: enhanced SGN-33 mediated ADCC

Kd [2]: 123 pM
Kd [3]: 70 pM
Kd [4]: 144 pM
Kd [5]: 99 pM
Compound: SGN-33, humanized M195 anti-CD33 antibody

phosphorylation of CD33 (CD33 [8]): induced phosphorylation of CD33
Compound: deglycosylated SGN-33: SGN-33 treated with PN-glycosidase F; does not interact with Fc receptors
macrophage migration [6]: significantly reduced the migration
effector function, including ADCC or CDC activity [7]: did not mediate effector function
recruitment of SHP-1 to the CD33 complex (CD33 [9]): resulted in recruitment of SHP-1 to the CD33 complex
